Reference: patent publication EP3070175A1, “TEST FOR DETERMINING SUSCEPTIBILITY OR RESISTANCE TO POLYMYXINS IN ENTEROBACTERIACEAE” (Université de Fribourg, priority 2015, dated 2016)

Tested on: enterobacterial strains
Assay: Polymyxin test: colorimetric detection of growth with polymyxin B as selective antibiotic
Assay type: cell-based, Enterobacteriaceae
Details: polymyxin B instead of colistin as selective antibiotic; all tested strains
Experimental: Each inoculum was prepared by mixing 1 öse (10 µl) of a fresh culture of the tested bacteria in 5 ml of sterile NaCl 0.85% (at a density of 3 Mac Farland, i.e. about 10^9 CFU/ml).
250 ml of reactive medium was prepared by mixing the compounds hereafter: • a broth powder of a non selective growth medium for bacteria, the Cation-Adjusted Mueller-Hinton broth (MHB-CA) : 6.25 g • a colour indicator, the phenol red : 0.0125 g • sterile distilled water 225 ml • sterile D (+)-glucose (10 %) anhydrous (sterilization by filtration) : 25 ml
The pH of the final reactive medium was adjusted to 6.6 and 6.7 with HCl 1M.
Colistin or polymyxin B was added or not at the concentration of 5 mg/L in the reactive medium. Standard colistin sulphate and polymyxin B were from Sigma Aldrich (Saint-Louis, France). Those antibiotic molecule powders were kept at 4°C before their use, whereas polymyxin dilutions were kept at -20°C.
For each strain, two wells of a plastic sterile plate with 96 shaped wells were inoculated in parallel with and without polymyxin (colistin sulphate or polymyxin B) in order to compare their colour change.
Plastic sterile plates were from Sarstedt (Nümbrecht, Germany). The tray may be prepared as follows : • 1. […]
The results of the tests were recorded at 10 min (checking for no spontaneous colour change in the well) and then every hour for a maximum of 4 hours by visual inspection. […]

## polymyxin B
  Results of the method of the invention compared with colistin: Identical results
